{
  "source": "patent US10196701B2",
  "about": "“Hepatitis B virus capsid assembly” (The Penn State Research Foundation, priority 2015, dated 2019)",
  "key": {"HBc CTD": {"test_system": "HBc CTD", "assay": "Mobility of unassembled HBc on agarose gel (CTD phosphorylation state) and HBc protein levels in RRL", "assay_type": "biochemical, Hepatitis B virus", "details": "for mobility upshift on the agarose gel of WT HBc: kinase inhibitors added at beginning of translation, ERKI 310 μM, Bisindo 40 μM; for mobility upshift on the agarose gel of WT HBc / C149 mobility on the agarose gel: Rosc 250 μM; for C149 mobility on the agarose gel: kinase inhibitors", "protocol": "(§1) The TNT Coupled Rabbit Reticulocyte Lysate (RRL) in vitro translation system (Promega) was used to express the HBc proteins as recommended by the manufacturer's protocol. In vitro translated proteins were labeled by ^35S methionine. The translation reaction mix contained ca. 125 mM KCI and 2.5 mM Mg^++ (Promega).\n(§2) Unless specifically indicated otherwise, the general assembly reactions included 1 to 3 microL of translation products per 10 microL final reaction volume in 1× buffer 3 (100 mM NaCl, 50 mM Tris-HCl, 10 mM MgCl2, 1 mM DTT, pH 7.9; New England Biolabs) supplemented with 1×EDTA-free protease inhibitor cocktail (Roche) and 0.8 U/μl RNasin Plus RNase Inhibitor (Promega). The reactions were incubated for 16 hrs at 37° C. unless indicated otherwise. Where indicated, additional enzymatic manipulations were performed using the same reaction buffer as above. (1) Exogenous phosphatase treatment. One unit of calf intestinal alkaline phosphatase (CIAP; New England Biolabs) per microliter of the final reaction volume was added at the end of translation and incubated for 16 hours at 37° C. (2) Kinase inhibitor treatment. […] The final concentration of DMSO in all reactions was 1% (i.e., kinase inhibitor stocks were always diluted 100-fold into the translation or assembly reactions). (3) Phosphatase inhibitor treatment. A cocktail of non-specific phosphatase inhibitors (10 mM NaF, 50 mM β-glycerophosphate, 10 mM sodium pyrophosphate, and 2 mM sodium orthovanadate; all final concentrations) were added at the end of the translation and incubated for 16 hours at 37° C. Alternatively, okadaic acid (Sigma) was added at the end of the translation at the indicated concentrations and incubated for 16 hours at 37° C. (4) RNase A digestion. RNase A (100 μg/ml final concentration) was added at the end of the translation and incubated for 16 hour at 37° C., or added at the end of the 16 hr assembly reaction and incubated for another one hr.\n(§3) ^35S-labeled translation reactions were resolved by 1% agarose gel electrophoresis (100 V for ˜3 hours), using 6×DNA Loading Buffer Blue (New England Biolabs). The gels were then soaked in 10×SSC (1.5 M NaCl, 150 mM sodium citrate, pH 7.0) for approximately 30 minutes and transferred overnight to nitrocellulose membrane by capillary transfer. The next day the membranes were UV cross-linked and dried in a vacuum oven for 2 hours. The translation products were analyzed by autoradiography and Western blotting with the rabbit polyclonal anti-HBcAg (Dako) or mouse monoclonal anti-woodchuck hepatitis virus core protein (Ning X, et al. (2011) PLoS pathogens 7: e1002255).\n^35S-labeled translation reactions were resolved by SDS-PAGE on 15% or 12.5% polyacrylamide gels. The resolved proteins were transferred to PVDF membrane and detected by autoradiography or Western blotting as above."}, "[1]": {"test_system": "HBc (HBV capsid assembly)", "assay": "In vitro capsid assembly in RRL, agarose gel electrophoresis", "assay_type": "biochemical, Hepatitis B virus", "protocol": "as §1, §2, §3"}, "PP2A": {"test_system": "PP2A", "details": "cellular serine/threonine phosphatase PP2A; Cohen P, et al. (1990); cited from earlier work"}, "PP1": {"test_system": "PP1", "details": "cellular serine/threonine phosphatase PP1; Cohen P, et al. (1990); cited from earlier work"}, "[2]": {"details": "kinase inhibitors, Rosc 250 μM, CDK2I 250 μM"}, "[3]": {"details": "phosphatase inhibitor added during assembly incubation, OA 50 nM"}, "[4]": {"details": "CIAP treatment following translation"}, "[5]": {"details": "RNase pretreatment before assembly"}, "[6]": {"details": "RNase treatment before assembly"}},
  "data": [
    {"molecule": "Nc1[nH]nc2nnc(-c3c(-c4ccccc4)nn4ccccc34)cc12", "note": "[ERK inhibitor, Erk inhibitor II]", "values": [
      {"measurement": "mobility upshift on the agarose gel of WT HBc", "setting": "HBc CTD; CDK2I 250 μM", "value": "no effect"}
    ]},
    {"molecule": "CC[C@H](CO)Nc1nc(NCc2ccccc2)c2ncn(C(C)C)c2n1", "note": "[roscovitine, Roscovitine]", "values": [
      {"measurement": "C149 mobility on the agarose gel", "setting": "HBc CTD; CDK2I 250 μM", "value": "no effect"},
      {"measurement": "7E assembly", "setting": "[1]; [2]", "value": "little effect"}
    ]},
    {"molecule": "CN(C)CCCn1cc(C2=C(c3c[nH]c4ccccc34)C(=O)NC2=O)c2ccccc21", "note": "[PKC inhibitor, Bisindolymaleimide I]", "values": [
      {"measurement": "mobility upshift on the agarose gel of WT HBc", "setting": "HBc CTD; CDK2I 250 μM", "value": "no effect"}
    ]},
    {"molecule": "COc1ccc(CNc2nc(N(CCO)CCO)nc3c2ncn3C(C)C)cc1", "note": "[CDK2 inhibitor, CDK2 inhibitor III]", "values": [
      {"measurement": "levels of the WT and mutant HBc proteins", "setting": "HBc CTD; SDS-PAGE, CDK2I 250 μM", "value": "increase"},
      {"measurement": "mobility upshift on the agarose gel of WT HBc", "setting": "HBc CTD; CDK2I 250 μM", "value": "induced a mobility upshift"},
      {"measurement": "C149 mobility on the agarose gel", "setting": "HBc CTD; CDK2I 250 μM", "value": "no effect"},
      {"measurement": "7E assembly", "setting": "[1]; [2]", "value": "little effect"}
    ]},
    {"molecule": "C=C1[C@@H](O)[C@@H]2O[C@]3(CC[C@H](/C=C/[C@@H](C)[C@@H]4CC(C)=C[C@@]5(O[C@H](C[C@@](C)(O)C(=O)O)CC[C@H]5O)O4)O3)CC[C@H]2O[C@@H]1[C@@H](O)C[C@H](C)[C@H]1O[C@@]2(CCCCO2)CC[C@H]1C", "note": "[OA, okadaic acid]", "values": [
      {"measurement": "IC50", "setting": "PP2A", "value": "~0.1", "unit": "nM"},
      {"measurement": "mobility upshift of the WT HBc on the agarose gel", "setting": "HBc CTD; phosphatase inhibitor added during overnight 37° C. incubation following translation, OA 50 nM", "value": "completely blocked"},
      {"measurement": "OA concentration that could significantly affect the dephosphorylation-induced mobility upshift of the WT HBc", "setting": "HBc CTD; titration of OA, overnight incubation at 37° C.", "value": 4, "unit": "nM"},
      {"measurement": "capsid assembly by 3A", "setting": "[1]; [3]", "value": "not inhibited"},
      {"measurement": "capsid assembly by 3E", "setting": "[1]; [3]", "value": "prevented assembly"},
      {"measurement": "IC50", "setting": "PP1", "value": "15 to 20", "unit": "nM"}
    ]},
    {"molecule": "CIAP: calf intestinal alkaline phosphatase, exogenous phosphatase (New England Biolabs) (protein, UniProt P19111 20-506, looked up) Intestinal-type alkaline …: LVPVEEEDPAFWNRQAAQALDVAKKLQPIQTAAKNVILFLGDGMGVPTVTATRILKGQMNGKLGPETPLAMDQFPYVALSKTYNVDRQVPDSAGTATAYLCGVKGNYRTIGVSAAARYNQCKTTRGNEVTSVMNRAKKAGKSVGVVTTTRVQHASPAGAYAHTVNRNWYSDADLPADAQMNGCQDIAAQLVNNMDIDVILGGGRKYMFPVGTPDPEYPDDASVNGVRKRKQNLVQAWQAKHQGAQYVWNRTALLQAADDSSVTHLMGLFEPADMKYNVQQDHTKDPTLQEMTEVALRVVSRNPRGFYLFVEGGRIDHGHHDDKAYMALTEAGMFDNAIAKANELTSELDTLILVTADHSHVFSFGGYTLRGTSIFGLAPSKALDSKSYTSILYGNGPGYALGGGSRPDVNDSTSEDPSYQQQAAVPQASETHGGEDVAVFARGPQAHLVHGVEEETFVAHIMAFAGCVEPYTDCNLPAPTTATSIPD", "values": [
      {"measurement": "mobility of the C149 truncation mutant", "setting": "HBc CTD; [4]", "value": "did not affect the mobility"},
      {"measurement": "assembly of the WT HBc", "setting": "[1]; CIAP 1 unit per microliter, 16 hours at 37° C. following translation", "value": "induced the assembly"},
      {"measurement": "assembly of the 3A mutant", "setting": "[1]; [4]", "value": "did not have a significant effect"},
      {"measurement": "assembly of the 3E mutant", "setting": "[1]; [4]", "value": "did not have a significant effect"}
    ]},
    {"molecule": "RNase: RNase A, 100 μg/ml final concentration (protein, UniProt P61823 27-150, looked up) Ribonuclease pancreatic: KETAAAKFERQHMDSSTSAASSSNYCNQMMKSRNLTKDRCKPVNTFVHESLADVQAVCSQKNVACKNGQTNCYQSYSTMSITDCRETGSSKYPNCAYKTTQANKHIIVACEGNPYVPVHFDASV", "values": [
      {"measurement": "assembly of the 3A mutant", "setting": "[1]; [5]", "value": "no effect"},
      {"measurement": "assembly of the 3E mutant", "setting": "[1]; [5]", "value": "prevented assembly"},
      {"measurement": "WT HBc capsid assembly", "setting": "[1]; RNase treatment before CIAP treatment, RNase A 100 μg/ml", "value": "prevented capsid assembly"},
      {"measurement": "7A assembly", "setting": "[1]; [6]", "value": "abolished"},
      {"measurement": "7E assembly", "setting": "[1]; [6]", "value": "no effect"},
      {"measurement": "assembled capsids (WT and mutants)", "setting": "[1]; RNase treatment following the completion of capsid assembly", "value": "little effect"}
    ]}
  ]
}
